Active and inactive are the calls of the source. No cut-off for these calls is given here.

Data set [1] relates to Mus musculus. Briefly: Toxicity in sc dosed CF1S mouse. It counts as organism-based. The following applies: in vivo.
Data set [2] has as its system Mus musculus. Briefly: Analgetic activity against CF-1 mouse assessed as increase in reaction time at 140 mg/kg, sc by heat stimulus induced tail flick response assay. The format is functional, organism-based. Further details: dose 140 mg/kg.

Consider `Oc1ccc2c(c1)C1(c3ccccc3)CCN(CC3CC3)C(C2)C1` (configuration not stated), for which, in data set [1], the Activity result was “Toxic”.

Regarding `CCN1CCC2(c3ccccc3)c3cc(O)ccc3CC1C2C` (configuration not stated), in data set [2], the result was Active.

The values above are taken from ChEMBL document CHEMBL3244027, “Syntheses, analgetic activity, and physical dependence capacity of 5-phenyl-6,7-benzomorphan derivatives” (J Med Chem, 1979).
